Source: US20190369119A1, “Protein Biomarkers for Identifying and Treating Aging Skin and Skin Conditions” (priority 2018, published 2019)

How the values were obtained:
Format in all cases: cell-based
[1] = test system: HSP70 protein level; test: HSP70 ELISA (Enzo kit), normal human dermal fibroblasts, 24 h treatment; settings: 0.01%, HDF cells, FIG. 4
Method: Normal human dermal fibroblasts (Cascade Biologics) were seeded into four wells of a six well plate (5.0×10^5 cells/well) and cultured overnight. The following day, cells were replenished with fresh media and test compositions were added. The test compositions including their control for each formulation: […]
Following 24 hours of treatment, the cells were lysed and the HSP70 protein level was measured using an ELISA kit (available from Enzo Life Sciences). Cells were lysed using the lysis buffer provided with the kit. The amount of proteins for each sample was calculated using the standard curve.
The assay was performed in triplicate for each sample and the values represent mean±S.D. (standard deviation).

[2] = test system: HSP70 protein level; test: HSP70 ELISA (Abcam kit), full thickness human 3D skin cultures (MatTek), 24 h treatment; settings: 1% by weight, skin 3-D tissues, FIG. 6
Method: A series of experiments was conducted to assess the effects of various treatments with HSP70 inducers on full thickness 3D skin cultures. Human 3D skin (MatTek, Mass.) were cultured following the manufacturer's instructions overnight. The following day, tissues were replenished with fresh media and then compositions comprising various potential actives were added. Following 24 hours of treatment, the tissues were lysed and the HSP70 protein level was measured using an ELISA kit (available from Abcam). The amount of the proteins was calculated according to the standard curve. For these measurements, the test materials were formulated in control at 1% by weight of the composition or at 0.04% by weight of the composition (Arnica montana, rosemary, black cohosh, turmeric, chamomile, aloe, horse chestnut, linseed, grapeseed, argan oil, gromwell, marjoram, sage, lauric acid, butyric acid) or they were formulated in control at 0.04% by weight of the composition (licorice, tetrahydrocurcumin (THC), olive leaf, milk thistle, glutamate).
The results are shown in FIG. 6 as the measured amount of HSP70 proteins/μg total protein for each sample. Samples labeled with “*” indicate a p value compared to the control of less than 0.05.

[3] = test system: HSP70 protein level; test: HSP70 ELISA (Abcam kit), normal human dermal fibroblasts, 24 h treatment; settings: for stimulation of HSP70 protein level as compared to control: HDF cells, FIG. 5; for HSP70 induction value (Control = 1): normal human dermal fibroblasts, FIG. 3
Method: Normal human dermal fibroblasts were cultured in 6-well tissue culture treated plates. Cells were treated with test material (agent/compound) at the concentrations indicated, or with respective vehicle control diluted in growth medium, for 24 hours in a humidified 37° C. incubator with 5% CO2. After incubation, growth medium from each plate was removed and cells were lysed. HSP70 protein level in the cells was determined by a commercially available ELISA kit (Abcam, Cambridge, Mass.). In FIG. 3, Control induction value=1; shikonin (1 μM concentration) induction value=1.7; Arnica Montana (0.003% concentration) induction value=1.86; resveratrol (0.003% concentration) induction value=1.47; and G. T. polyphenol (0.003% concentration) induction value=1.24.
Similar experimentation on other HSP70 inducers was performed using an HSP70 ELISA kit (available from Abcam; cat. # ab133060). Briefly, normal human dermal fibroblasts (Cascade Biologics) were seeded into four wells of a six well plate (5.0×10^5 cells/well) and cultured overnight. The following day, cells were replenished with fresh media and test compositions were added. The test compositions including their control for each formulation: […]
The active ingredient was formulated in the ethanol:water control. Following 24 hours of treatment, the cells were lysed and the HSP70 protein level was measured using an ELISA kit (available from Abcam). Cells were lysed using the lysis buffer provided with the kit. The amount of proteins for each sample was calculated using the standard curve.
The assay was performed in triplicate for each sample and the values represent mean±S.D. (standard deviation). Samples labeled with “*” indicate a p value compared to the control of less than 0.05.

| Compound | stimulation of HSP70 protein level as compared to control ([3]; 0.003%) | HSP70 induction value (Control = 1) ([3]; 0.003%) | other results |
| --- | --- | --- | --- |
| C=C(C)[C@@H]1CCC(C)=C[C@H]1c1c(O)cc(CCCCC)cc1O [CBD, cannabidiol] |  |  | stimulation of HSP70 protein level compared to its control [1]: 189% |
| CCCC(=O)O [butyric acid] |  |  | stimulation of HSP70 protein levels as compared to control [2]: 248% |
| epigallocatechin-3-gallate [G. T. polyphenol] | 124% | 1.24 |  |
| Oc1ccc(/C=C/c2cc(O)cc(O)c2)cc1 [resveratrol, trans-3,5,4′-trihydroxystilbene] | 147% | 1.47 |  |
| CC(C)=CC[C@@H](O)C1=CC(=O)c2c(O)ccc(O)c2C1=O [shikonin] |  |  | stimulation of HSP70 protein level as compared to control ([3]; 1 μM): 170%; HSP70 induction value (Control = 1) ([3]; 1 μM): 1.7 |
